For data set [1], the system named is 14-d-old rat pups. Nature of the data set: Small intestine length and weight, Creon with anti-inflammatory drug pre-treatment, Example 2. The format is in vivo. The settings on record: for Small intestine Distal wt / Small intestine Length / Small intestine Proximal wt: drug 0.01 mg/g b.wt per day, then water (no Creon). How it is done:
(§1) In both of the following experiments 14-d-old pups were weighed and divided into groups and further to subgroups depending on the aim of each experiment. Pups were fed intragastrically via a feeding tube (0.96 mm outer diameter, PE50, Becton Dickinson, Sparks, Md., USA), in a volume 0.01 mL/g b.wt. The dose(s) for each pup was repeated once daily in corresponding manner for three days (14, 15, 16-d-old).
(§2) At 17 days of age, all the pups were separated from their dams and then anesthetized by a subcutaneous injection of a mixture of Azaperone® (Stresnil; Janssen Pharmaceutica, Beerse, Belgium), 30 μg/g body weight (b.wt), and Ketamine® (Ketalar; Pfizer, New York, N.Y., USA), 170 μg/g b.wt. Once sure of anesthesia, the abdomen and thorax were then opened, euthanized via heart puncture. The small intestine was, after it was dissected out, length measured and then divided into two equally long proximal and distal parts, both of which were flashed with cold saline followed by a measurement of each one's weight. A 2 cm piece was collected from the midsection of the distal part and fixed in bouin's solution for 24 hr at room temperature for morphological changes measurements, while the rest parts of it were immediately frozen on dry ice and stored for functional analysis.
In order to compensate for individual variations in BW, the organ measurements are presented per g BW. All data are presented as mean values and standard deviations. Statistical comparisons between all groups were carried out using a one-way ANOVA analysis (SigmaStat 2.0; Jandel Scientific, San Rafael, Calif., USA) with all pairwise multiple-comparison procedures (Student Newman-Keuls method). Differences were considered to be significant when P<0.05.
(§3) The 2nd exp. includes four litters; all pups (n=36) were randomly divided into two groups (Creon: 150 mg of capsule (lipase 10 000 USP, potease 37 500 USP, amylase 33 200 USP and water), the dose of Creon was 1.5 mg/g b.wt), then each group divided into subgroup pretreated one hour prior to enzyme feeding with anti-inflammatory drugs, Ibuprofen or Celecoxib (celecoxib; Pfizer, New York, N.Y., USA) the dose of drugs was 0.01 mg/g b.wt per day for both, diluted to give volume 0.01 mL/g b.wt. Thus six groups were obtained water/water, Ibupofen/water, Celecoxib/water, water/Creon, Ibuprofen/Creon and Celecoxib/Creon.

The test system of data set [2] is 14-d-old rat pups. Nature of the data set: Morphometry of mature enterocytes along villi, Creon with drug pre-treatment, Example 2. Conditions: for Mature epithelium: drug 0.01 mg/g b.wt per day, then water (no Creon). In kind it is in vivo. On the procedure:
as §1, §2
All the samples from the distal SI were embedded into paraffin, cut laterally into […] thick sections, deparaffinated, and stained with hematoxylin and eosin according to standard procedures. All the samples were then imaged by using an Olympus PROVIS microscope (objective ×10) utilizing an Olympus DP50 camera (Olympus, Tokyo, Japan). Morphomertic analysis by measuring the ratio of the length of the adult-like epithelium to whole villi length was done by using ImageJ 1.36 program (National Institute of Health, Bethesda, Md.). […]

The subject of data set [3] is 14-d-old rat pups. Nature of the data set: Disaccharidase activity in distal intestinal homogenates, Creon with drug pre-treatment, Example 2. The format is in vivo. The settings on record: for Disaccharidase specific activity, Lactase / Disaccharidase specific activity, Maltase / Disaccharidase specific activity, Sucrase: drug alone, then water (no Creon), distal part. On the procedure: as §1, §2
The distal part of the small intestine was homogenized in cold 0.9% NaCl (1:10 w/v). Then, the disaccharidase activities were measured by the Dahlqvist A method, by incubating the homogenates with the appropriate disaccharide for 1 h at 37° C., thereafter the liberated glucose was measured by using a glucose oxidase reagent (Sigma chemicals), as described in Dahlqvist, A, in 1984 (Assay of intestinal disaccharidases, Scand J Clin Lab Invest, 1984; 44: 169-172).
The protein contents were determined by the method of Lowry et al (Lowry O H, Rosebrough N J, Farr A L & Randall R J Protein measurement with the Folin phenol reagent, J Biol Chem; 1951:193, 265-275.), modified for 96-well microplates as described in Pierzynowsk et al (Pierzynowsk S G, Westrom B R, Svendsen J & Karlsson B W. Development of exocrine pancreas function in chronically cannulated pigs during 1-13 weeks of postnatal life. J Pediatr Gastroenterol Nutr 1990; 10:206-212), and using serial dilutions of BSA (Sigma chemicals) as a standard.
as §3

The conditions of data set [4]: cited from earlier work.
In data set [5] the test system is suckling rats. Nature of the data set: Set I: intestinal morphology of distal SI, Example 3. The format is in vivo, Rattus norvegicus. The settings on record: distal part of SI, day 17. How it is done:
All samples collected for histology were fixed with Bouin's solution for 24 hours and then stored in 70% ethanol, dehydrated, embedded into the paraffin and then cut into sections with 5 μm thickness. The tissue sections were transferred onto the slides, rehydrated and stained with H&E according to the standard technique. After mounting under cover slips samples were examined using light microscopy to estimate ratio between total length of the villus and length of the adult type enterocytes using ImageJ program.

In data set [6] the test system is suckling rats. Nature of the data set: Set I: plasma concentration of marker molecules BSA and BIgG (macromolecule absorption), Example 3. The format is in vivo, Rattus norvegicus. Conditions: 3 hours after marker feeding, day 17, in words (FIG. 6). The source says: The plasma level of marker molecules was quantified by using immunoassay rocket electrophoresis and SRI (single radial immunodiffusion) for plasma BSA and BIgG respectively.

For data set [7], the system named is suckling rats. Nature of the data set: Set I: body weight, GI and lymphoid organ weights, stomach pH after individual enzymes or mixture, Example 3. Conditions: day 17; for Body weight / Cecum / Distal SI / Liver / Pancreas / Proximal SI / SI length / Spleen / Stomach / Thymus: 3 days treatment; for pH: stomach contents.
Procedure: All experiments were performed in young suckling rats by feeding them from 14 days of age via stomach tube for 3 continuous days (ones a day). One day after last treatment rats were euthanized and plasma and organs proceeded to study structural and functional changes of gastrointestinal system.
The pups were kept with their dam until dissection day (day 17).
In this set suckling pups were divided into five groups; control (water) amylase 10 000 USP/rat/day, lipase 4 000 USP/rat/day, protease 15 000 USP/rat/day, and mixture of these enzyme with corresponding activities per rat and day. This study was evaluating the effects of different pancreatic-like enzymes on the gut maturation and functioning and had 3 individual litters; n=12, n=10 and n=13, totally n=7 pups per each group. Each of the enzymes (Amylase, Protease and Lipase) (Sigma Aldrich) was available in the powder form and was resolved in distilled water prior to stomach feeding during days 14, 15 and 16. The volume of administered enzymes and distilled water (for control groups) was 0.01 ml/g BW. Each time, prior to the feeding procedure, the pups were weighed. […] Then 3 hours later, the pups were sedated with CO2 and anaesthetized by subcutaneous injection with a mixture of ketamine (Ketalar®, Pfizer, New York, USA, NaCl and azaperone (Stresnil®, Janssen Pharmaceutica, Beerse, Belgium), 0.01 ml/g BW. After opening the abdomen of the rats, 1 ml of blood was collected from heart by using syringes containing protease inhibitor and EDTA (50 μl) as anticoagulant and was transferred into ice-chilled tubes. After this, the pancreas was immediately dissected and rinsed with cold 0.9% NaCl, weighted and stored at −70 C. The SI was removed and its length was measured then divided into two halves, proximal and distal. Each segment was flushed out with cold 0.9% NaCl to clean the lumen and was then weighed separately. […] The stomach was removed and its content was collected into the tube (for measuring its pH) and frozen. Then cecum was dissected out, opened, rinse and weighed as well as liver and lymphoid organs spleen and thymus were dissected and weighted.
The contents of the stomach were de-frozen and then resolved with 1 ml of cold 0.9% NaCl. After resolving, they were centrifuged and the pH was measured in the supernatant using pH-meter.
All data are presented as mean±standard deviation (SD). Statistical comparisons between each group and control group were performed using the t-test. Results were considered as significant when P<0.05.
The test system of data set [8] is suckling rats. Nature of the data set: Set I: brush-border disaccharidase activity in proximal SI, Example 3. The format is in vivo, Rattus norvegicus. The settings on record: proximal part of SI, in words (FIG. 5). On the procedure:
The proximal samples of the SI were de-frozen and weighted and then homogenized with 9 parts of 0.9% NaCl (9 w/v). The homogenates (50 μl diluted samples) were incubated with the appropriate disaccharide (50 μl of 0.056M sucrose, maltose and lactose) for 1 hour at 37° C. After this, the liberated glucose was determined by adding glucose oxidase reagent (Sigma Chemicals), and incubated for 30 minutes. Then samples were transferred into the 96-well plate in triplication and the absorbance was measured at 450 nm. To measure the protein contents of the homogenates, Lowry method, was used, where BSA (Bovine Serum Albumin) was used as a standard. The results are presented as specific activity units per mg of protein (u/mg).

In data set [9] the test system is young rats. Nature of the data set: Growth of young rats treated with microbial amylase or lipase, Example 7. The settings on record: 10 000 USP for amylase/rat, days 14-16, in words (FIG. 11). In kind it is in vivo. On the procedure: This study was done to consider the effect of separated enzymes on body growth. The experiment is completing study done earlier to investigate effects of protease on body growth and was performed in similar mode (see experiment 3-5 above).
Suckling pups were divided into 3 groups depending on the treatment; amylase, lipase and water (n=7 per group). The enzymes are available in the market in form of powders and were resolved in distilled water prior to stomach feeding during 14-16 d of age, ones a day. The administered dose for each single enzyme feeding was 4 000 USP for lipase/rat and 10 000 USP for amylase/rat. The control group received vehicle.

Where [10] appears, read: drug one hour prior to Creon, in words.

The text below walks through data of patent US9205137B2, “Maturation of gastrointestinal tract” (ANARA AB, priority 2010, dated 2015).

`Cc1ccc(-c2cc(C(F)(F)F)nn2-c2ccc(S(N)(=O)=O)cc2)cc1` [Celexosib, Celecoxib]: in data set [1], the “Small intestine Distal wt” value is recorded as 14.45 ^A mg/g bwt, the “Small intestine Length” value is listed as 1.64 cm/g bwt and the “Small intestine Proximal wt” value is 16.32 ^A mg/g bwt. Further, in data set [2], the Mature epithelium is 7.98^A %. In data set [3], the “Disaccharidase specific activity, Lactase” value was determined as 100.91 U/mg; the “Disaccharidase specific activity, Maltase” value is 72.24 ^A U/mg; the “Disaccharidase specific activity, Sucrase” value was 1.28 ^A U/mg. In addition, the half life in data set [4] was 12 h.

As to `CC(C)Cc1ccc(C(C)C(=O)O)cc1` (centres unmarked) [Ibuprofen], in data set [1], the “Small intestine Distal wt” value was 13.81 ^A mg/g bwt, the “Small intestine Length” value turned out to be 1.60 cm/g bwt and the “Small intestine Proximal wt” value was 16.24 ^A mg/g bwt. Besides, the “effect of drug pre-treatment on the effect of Creon on intestinal weight and length” value in data set [1] (setting [10]) is on record as “could not be cancelled”. For the same compound, the Mature epithelium in [2] is 8.78^A %. Further, the “effect of drug pre-treatment on mature cells (morphometric analysis) under Creon” value in data set [2] (setting [10]) was “unaffected”. In data set [3], the “Disaccharidase specific activity, Lactase” value was found to be 114.17 U/mg; the “Disaccharidase specific activity, Maltase” value is reported as 82.75 ^A U/mg; the “Disaccharidase specific activity, Sucrase” value is on record as 1.12 ^A U/mg. The “effect of drug pre-treatment on disaccharidases activities under Creon” value in [3] (setting [10]) is on record as “unaffected”.

For Lipase from B. cepacia, in [5], the “foetal-type epithelium with vacuolated enterocytes along the villi” value is listed as 77%. Further, in data set [6], the “uptake of marker molecule BIgG to plasma” value is listed as “remained in a higher level” and the “uptake of marker molecule BSA to plasma” value was “remained in a higher level”. In data set [7], the Body weight amounted to 36.8 ± 2.2 gr, the Cecum is 2.4 ± 0.4 mg/g BW, the “Distal SI” value is 15.2 ± 0.9 mg/g BW and the Liver was found to be 34.5 ± 1.8 mg/g BW. In data set [7], the Pancreas stood at 3.7 ± 0.5 mg/g BW, the “Proximal SI” value stood at 17.5 ± 1.7 mg/g BW, the SI length turned out to be 1.5 ± 0.1 cm/g BW and the Spleen is given as 3.5 ± 0.4 mg/g BW. For the same compound, in data set [7], the Stomach worked out at 6.9 ± 0.8 mg/g BW, the Thymus was 4.9 ± 0.8 mg/g BW and the pH is reported as 4.0 ± 0.3. Also, in [8], the lactase activity entry is on record as “higher”, the maltase activity result is given as “stayed in a lower level” and the sucrase activity entry is on record as “stayed in a lower level”.

Consider α-Amylase from Aspergillus oryzae, for which, in data set [5], the “foetal-type epithelium with vacuolated enterocytes along the villi” value came to 77%. Moreover, in data set [6], the “uptake of marker molecule BIgG to plasma” value is on record as “remained in a higher level” and the “uptake of marker molecule BSA to plasma” value is reported as “remained in a higher level”. In [7], the Body weight was found to be 37.2 ± 2.3 gr, the Cecum was found to be 2.5 ± 0.3 mg/g BW, the “Distal SI” value was 15.2 ± 2.3 mg/g BW and the Liver came to 33.7 ± 1.3 mg/g BW. Besides, in data set [7], the Pancreas is given as 3.5 ± 0.4 mg/g BW, the “Proximal SI” value is 16.6 ± 1.9 mg/g BW, the SI length was 1.5 ± 0.0 cm/g BW and the Spleen is given as 3.6 ± 0.7 mg/g BW. Besides, in data set [7], the Stomach stood at 6.8 ± 0.4 mg/g BW, the Thymus came to 5.1 ± 0.2 mg/g BW and the pH is reported as 4.0 ± 0.2. The “growth of young rats in comparison to lipase and control group” value in data set [9] was “clear effect of amylase to stimulate growth”. Moreover, in data set [8], the lactase activity entry is on record as “higher”, the maltase activity entry is on record as “stayed in a lower level” and the sucrase activity result is reported as “stayed in a lower level”.
